Data on one compound can be found in patent US9351485B2, “Use of sophorolipids and derivatives thereof in combination with pesticides as adjuvant/additive for plant protection and the industrial non-crop field” (EVONIK DEGUSSA GMBH, priority 2009, dated 2016).

For the test, the system named is mildew fungus Blumeria graminis f. sp. hordei (race A6). The experiment in a line: Protective fungicide glasshouse trial on barley (mildew). Particulars: Table 6; Sulfur 250 g/ha, no adjuvant; 10 days after application. In kind it is in vivo. An excerpt: The plants (barley) were cultivated under glass in exactly the same way as in the curative trial. For the protective trials, however, the plants were sprayed at about three weeks old with spray solutions containing the active fungicidal ingredient sulfur (Microthiol WG 80% sulfur from Stähler), either alone or in combination with adjuvants/additives. Furthermore, in order to test for synergy, the adjuvant was applied in the spray solution alone, in other words without sulfur. The sulfur dose was 1000 ppm/l, while the adjuvants were used in different doses (for doses see results tables). The amount of spray solution was 250 l/ha, and so the adjuvant concentration in the spray solution was not more than 0.1%; the sulfur dose was 250 g/ha. […]
The activity of the adjuvant alone, of the pesticide alone (i.e., of the fungicides or herbicides), and of the pesticide/adjuvant combination was calculated, in a manner known to the skilled person, in comparison to an untreated control sample, which was nevertheless inoculated with the mildew fungus, and expressed in % control of the disease.

As to `S1SSSSSSS1` [Sulfur, sulfur], the “Efficacy (%)” value was determined as 46%.
